# Data reported in patent US20090041876A1, “OIL/FAT-CONTAINING COMPOSITION FOR SUPPRESSION OF CARCINOGENESIS” (KANEKA CORPORATION, priority 2005, published 2009).
# Counter-ions that a name gives are not always drawn. Marks after values point to notes of the source that are not given here.
# Tests used:
# [1] = liver medium-term bioassay (Ito test): liver weights, general status, light and electron microscopical examination of livers; assay type: in vivo, rat; details: F344 male rats, DEN +, 500 ppm with feed (positive control)
# Procedure: Diethylnitrosamine (DEN) was administered intraperitoneally to the rats once at a dose of 200 mg/kg for the purpose of an initiation treatment for liver carcinogenesis, and from two weeks after the administration, a test substance, i.e., the MCT solution was forcibly administered orally at doses of 0 (control group), 150, 300, and 600 mg/kg once a day seven times/week for six weeks (Groups 1 to 4). The doses of the MCT solution used in this test (150, 300, and 600 mg/kg) correspond to 45, 90, and 180 mg/kg body weight in terms of a licorice extract serving as an effective ingredient. In addition, phenobarbital sodium salt (S. PB) was administered with a feed to a positive control group at a concentration of 500 ppm (Group 5). […]
# (§1) After a lapse of the third week of the experiment (one week after the start of test substance administration), partial hepatectomy was performed for all the animals, and lesions in the livers were amplified. […] The areas of the liver sections and the numbers and areas of GST-P-positive cell foci with diameters of 0.2 mm or more were measured using a pathological specimen image analyzer IPAP-WIN (Sumika Technoservice Corporation), and then the areas and numbers per cm^2 of the liver sections were calculated to perform a quantitative analysis. […]
# GST-P-positive cell foci = assay: liver medium-term bioassay (Ito test): quantitative analysis of GST-P-positive cell foci in rat liver; assay type: in vivo
# Procedure: In order to examine the effect of the MCT solution of Example 1 on carcinogenesis, a search using a liver medium-term bioassay (Ito test) was performed. This test method is one of the two-step carcinogenesis models using rodents and is employed for rat liver. This test method has been used to search for 313 or more chemical substances, and is considered to be a reliable and useful method of searching for carcinogens or carcinogenesis-suppressing substances. Therefore, this test is accepted as an alternative to a conventional long-term carcinogenicity test in the Japan/US/EU Trilateral International Conference on Harmonization of Technical Requirements for Registration of Pharmaceuticals for Human Use (ICH). […]
# as §1
compound,measurement,setting,value
"CCC1(c2ccccc2)C(=O)NC(=O)NC1=O [Phenobarbital Sodium, phenobarbital sodium salt]","Liver weight, Absolute weight",[1],9.2781 ± 0.4913 g
same,"Liver weight, Relative weight",[1],3.3527 ± 0.1032 %
same,number and area per unit area of GST-P-positive cell foci versus control,"GST-P-positive cell foci; Group 5, DEN +, 500 ppm with feed",evidently high levels
same,"GST-P-positive cell foci, Area","GST-P-positive cell foci; rat liver, DEN +, 500 ppm with feed (positive control)",0.541 ± 0.160** mm^2/cm^2
